Data published in ChEMBL document CHEMBL3044866, “A facile and single pot strategy for the synthesis of novel naphthyridine derivatives under microwave irradiation conditions using ZnCl2 as catalyst, evaluation of AChE inhibitory activity, and molecular modeling studies” (Med Chem Res, 2012).

What was measured:
Acetylcholinesterase = Acetylcholinesterase (Homo sapiens, UniProt P22303); test: Inhibition of AChE (unknown origin) after 10 min by Ellmans method
in vitro [1] = details: human, THLE2 cells
Description: Cytotoxicity against Homo sapiens (human) THLE2 cells assessed as viable cells at 10 uM after 48 hr by MTT assay

in vitro [2] = details: human, THLE2 cells; remark: listed apart in the source
Description: Cytotoxicity against Homo sapiens (human) THLE2 cells assessed as viable cells at 1 uM after 48 hr by MTT assay

[3] = Cytotoxicity against Homo sapiens (human) THLE2 cells assessed as cell death at 10 uM after 48 hr by MTT assay; format: cell-based; details: thle-2, 48 h
in vitro [4] = details: human, THLE2 cells; remark: listed apart in the source
Description: Cytotoxicity against Homo sapiens (human) THLE2 cells assessed as viable cells at 0.5 uM after 48 hr by MTT assay

Acetylcholinesterase, sequence (P22303 whole entry): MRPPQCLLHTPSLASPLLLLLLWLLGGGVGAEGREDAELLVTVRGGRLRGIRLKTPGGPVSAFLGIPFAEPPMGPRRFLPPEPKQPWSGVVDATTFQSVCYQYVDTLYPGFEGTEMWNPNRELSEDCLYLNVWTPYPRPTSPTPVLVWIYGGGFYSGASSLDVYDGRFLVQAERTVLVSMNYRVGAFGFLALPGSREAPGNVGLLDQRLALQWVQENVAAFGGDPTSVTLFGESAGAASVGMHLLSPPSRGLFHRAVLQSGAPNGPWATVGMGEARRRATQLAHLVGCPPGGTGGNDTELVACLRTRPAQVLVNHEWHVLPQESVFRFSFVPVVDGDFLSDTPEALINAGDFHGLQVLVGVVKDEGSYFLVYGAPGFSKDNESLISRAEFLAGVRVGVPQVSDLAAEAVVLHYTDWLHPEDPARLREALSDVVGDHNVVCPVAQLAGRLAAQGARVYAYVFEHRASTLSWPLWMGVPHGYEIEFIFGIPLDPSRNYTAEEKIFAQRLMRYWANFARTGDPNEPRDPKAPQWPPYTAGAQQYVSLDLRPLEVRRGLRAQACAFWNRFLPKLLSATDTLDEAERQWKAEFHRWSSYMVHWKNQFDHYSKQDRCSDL

| Structure (SMILES) | IC50 (Acetylcholinesterase) [µM] | other results |
| --- | --- | --- |
| Nc1cc(-c2ccccc2)nc2nc(-c3ccccc3)cc(C(F)(F)F)c12 | 7.1 |  |
| CC1Cc2nc3nc(-c4ccccc4)cc(C(F)(F)F)c3c(N)c2C1 (centres undefined) | 9.37 |  |
| Nc1cc(-c2ccc(F)cc2)nc2nc(-c3ccccc3)cc(C(F)(F)F)c12 | 6.58 |  |
| CC(C)Cc1cc(N)c2c(C(F)(F)F)cc(-c3ccccc3)nc2n1 | 19.1 |  |
| Nc1c2c(nc3nc(-c4ccccc4)cc(C(F)(F)F)c13)-c1ccccc1CC2 | 23.1 |  |
| Nc1c2c(nc3nc(-c4ccccc4)cc(C(F)(F)F)c13)CCC2 | 8.05 |  |
| CC1CCc2nc3nc(-c4ccccc4)cc(C(F)(F)F)c3c(N)c2C1 (centres undefined) | 0.51 |  |
| Nc1cc(-c2cccs2)nc2nc(-c3ccccc3)cc(C(F)(F)F)c12 | 10.4 |  |
| Nc1cc(-c2ccc(Cl)cc2)nc2nc(-c3ccccc3)cc(C(F)(F)F)c12 | 0.52 | viability at 48 h, 10 µM (in vitro [1]): 84.2%; viability at 48 h, 1 µM (in vitro [2]): 98.1%; Activity [3]: 16%; viability at 48 h, 0.5 µM (in vitro [4]): 97.1% |
| Nc1c2c(nc3nc(-c4ccccc4)cc(C(F)(F)F)c13)CCCCC2 | 10.1 |  |
| COc1ccc(-c2cc(N)c3c(C(F)(F)F)cc(-c4ccccc4)nc3n2)cc1 | 8.24 |  |
| CC1CCc2c(nc3nc(-c4ccccc4)cc(C(F)(F)F)c3c2N)C1 (centres undefined) | 3.25 |  |
| Nc1c2c(nc3nc(-c4ccccc4)cc(C(F)(F)F)c13)CCCC2 | 0.35 |  |
| Nc1cc(-c2cccc(F)c2)nc2nc(-c3ccccc3)cc(C(F)(F)F)c12 | 7.03 |  |
| Nc1cc(-c2ccccc2Br)nc2nc(-c3ccccc3)cc(C(F)(F)F)c12 | 0.89 | viability at 48 h, 10 µM (in vitro [1]): 99.9%; viability at 48 h, 1 µM (in vitro [2]): 95.9%; viability at 48 h, 0.5 µM (in vitro [4]): 98.7% |
| Nc1c2c(nc3nc(-c4ccccc4)cc(C(F)(F)F)c13)CCCCCC2 | 7.69 |  |
| Nc1c2c(nc3nc(-c4ccccc4)cc(C(F)(F)F)c13)-c1ccccc1C2 | 17.6 |  |
